Source: the NIST ThermoML archive (doi:10.1016/j.jct.2014.12.022)
± gives the expanded uncertainty stated by the source.

Experiment: molar heat capacity at constant pressure; xn = mol fraction of the nth substance listed
Conditions: 100 kPa, Liquid, Small sample (50 mg) DSC

CN1CCCC1=O [N-methylpyrrolidone] + c1ccccc1
molar heat capacity at constant pressure [J/K/mol]
Conditions	293.15 K	298.15 K	303.15 K
x1 = 0.0787	137.73 ± 2.8	139.51 ± 2.8	140.9 ± 2.8
x1 = 0.1156	139.63 ± 2.8	141.42 ± 2.8	142.83 ± 2.9
x1 = 0.168	142.27 ± 2.9	144.04 ± 2.9	145.46 ± 2.9
x1 = 0.1983	143.75 ± 2.9	145.51 ± 2.9	146.92 ± 2.9
x1 = 0.2249	145.03 ± 2.9	146.77 ± 2.9	148.18 ± 3
x1 = 0.2634	146.83 ± 2.9	148.55 ± 3	149.94 ± 3
x1 = 0.3065	148.78 ± 3	150.46 ± 3	151.83 ± 3
x1 = 0.3325	149.91 ± 3	151.58 ± 3	152.93 ± 3.1
x1 = 0.3617	151.15 ± 3	152.8 ± 3.1	154.13 ± 3.1
x1 = 0.4106	153.13 ± 3.1	154.74 ± 3.1	156.04 ± 3.1
x1 = 0.4367	154.13 ± 3.1	155.73 ± 3.1	157.02 ± 3.1
x1 = 0.4635	155.13 ± 3.1	156.71 ± 3.1	157.98 ± 3.2
x1 = 0.5008	156.45 ± 3.1	158.01 ± 3.2	159.26 ± 3.2
x1 = 0.5598	158.37 ± 3.2	159.91 ± 3.2	161.13 ± 3.2
x1 = 0.5952	159.42 ± 3.2	160.95 ± 3.2	162.15 ± 3.2
x1 = 0.6245	160.24 ± 3.2	161.75 ± 3.2	162.94 ± 3.3
x1 = 0.6616	161.18 ± 3.2	162.69 ± 3.2	163.85 ± 3.3
x1 = 0.7099	162.28 ± 3.2	163.76 ± 3.3	164.9 ± 3.3
x1 = 0.7494	163.06 ± 3.3	164.51 ± 3.3	165.62 ± 3.3
x1 = 0.7748	163.51 ± 3.3	164.93 ± 3.3	166.02 ± 3.3
x1 = 0.8011	163.92 ± 3.3	165.31 ± 3.3	166.38 ± 3.3
x1 = 0.8319	164.35 ± 3.3	165.68 ± 3.3	166.72 ± 3.3
x1 = 0.8767	164.84 ± 3.3	166.08 ± 3.3	167.06 ± 3.3
x1 = 0.9152	165.15 ± 3.3	166.28 ± 3.3	167.2 ± 3.3

Cc1ccc(Cl)cc1 [4-chlorotoluene] + c1ccccc1
molar heat capacity at constant pressure [J/K/mol]
Conditions	293.15 K	298.15 K	303.15 K
x2 = 0.0912	170.37 ± 3.4	172.42 ± 3.5	174.55 ± 3.5
x2 = 0.1226	168.6 ± 3.4	170.58 ± 3.4	172.63 ± 3.5
x2 = 0.1657	166.22 ± 3.3	168.12 ± 3.4	170.06 ± 3.4
x2 = 0.2012	164.3 ± 3.3	166.15 ± 3.3	168.01 ± 3.4
x2 = 0.2374	162.4 ± 3.2	164.19 ± 3.3	165.99 ± 3.3
x2 = 0.2675	160.86 ± 3.2	162.61 ± 3.2	164.35 ± 3.3
x2 = 0.3135	158.57 ± 3.2	160.26 ± 3.2	161.93 ± 3.2
x2 = 0.3456	157.02 ± 3.1	158.69 ± 3.2	160.3 ± 3.2
x2 = 0.3702	155.87 ± 3.1	157.51 ± 3.1	159.08 ± 3.2
x2 = 0.4231	153.47 ± 3.1	155.06 ± 3.1	156.56 ± 3.1
x2 = 0.4657	151.63 ± 3	153.19 ± 3.1	154.63 ± 3.1
x2 = 0.5093	149.83 ± 3	151.35 ± 3	152.74 ± 3
x2 = 0.5346	148.82 ± 3	150.33 ± 3	151.68 ± 3
x2 = 0.5723	147.36 ± 3	148.85 ± 3	150.16 ± 3
x2 = 0.6022	146.25 ± 2.9	147.72 ± 3	148.99 ± 3
x2 = 0.6357	145.04 ± 2.9	146.49 ± 2.9	147.73 ± 3
x2 = 0.6701	143.84 ± 2.9	145.27 ± 2.9	146.49 ± 2.9
x2 = 0.6989	142.86 ± 2.9	144.29 ± 2.9	145.48 ± 2.9
x2 = 0.7224	142.08 ± 2.8	143.51 ± 2.9	144.68 ± 2.9
x2 = 0.7564	140.98 ± 2.8	142.41 ± 2.9	143.56 ± 2.9
x2 = 0.8096	139.31 ± 2.8	140.75 ± 2.8	141.89 ± 2.8
x2 = 0.8213	138.95 ± 2.8	140.4 ± 2.8	141.54 ± 2.8
x2 = 0.8543	137.95 ± 2.8	139.41 ± 2.8	140.56 ± 2.8
x2 = 0.8886	136.92 ± 2.7	138.42 ± 2.8	139.57 ± 2.8

Cc1cccc(Cl)c1 [3-chlorotoluene] + c1ccccc1
molar heat capacity at constant pressure [J/K/mol]
Conditions	293.15 K	298.15 K	303.15 K
x2 = 0.1056	169.49 ± 3.4	170.68 ± 3.4	171.79 ± 3.4
x2 = 0.1477	167.26 ± 3.4	168.43 ± 3.4	169.51 ± 3.4
x2 = 0.1746	165.85 ± 3.3	167.02 ± 3.3	168.08 ± 3.4
x2 = 0.2065	164.21 ± 3.3	165.37 ± 3.3	166.4 ± 3.3
x2 = 0.2347	162.78 ± 3.3	163.93 ± 3.3	164.95 ± 3.3
x2 = 0.2856	160.26 ± 3.2	161.4 ± 3.2	162.4 ± 3.2
x2 = 0.3148	158.85 ± 3.2	160 ± 3.2	160.98 ± 3.2
x2 = 0.3452	157.42 ± 3.1	158.56 ± 3.2	159.53 ± 3.2
x2 = 0.3899	155.37 ± 3.1	156.52 ± 3.1	157.48 ± 3.1
x2 = 0.4132	154.33 ± 3.1	155.48 ± 3.1	156.44 ± 3.1
x2 = 0.4499	152.73 ± 3	153.89 ± 3.1	154.85 ± 3.1
x2 = 0.4967	150.76 ± 3	151.94 ± 3	152.9 ± 3.1
x2 = 0.5231	149.69 ± 3	150.88 ± 3	151.84 ± 3
x2 = 0.5505	148.6 ± 3	149.81 ± 3	150.77 ± 3
x2 = 0.5836	147.32 ± 3	148.55 ± 3	149.52 ± 3
x2 = 0.6335	145.46 ± 2.9	146.73 ± 2.9	147.72 ± 3
x2 = 0.6625	144.42 ± 2.9	145.71 ± 2.9	146.71 ± 2.9
x2 = 0.6988	143.15 ± 2.9	144.47 ± 2.9	145.5 ± 2.9
x2 = 0.7207	142.41 ± 2.9	143.74 ± 2.9	144.78 ± 2.9
x2 = 0.7756	140.58 ± 2.8	141.98 ± 2.8	143.06 ± 2.9
x2 = 0.8045	139.65 ± 2.8	141.08 ± 2.8	142.18 ± 2.8
x2 = 0.8466	138.32 ± 2.8	139.8 ± 2.8	140.94 ± 2.8
x2 = 0.8845	137.14 ± 2.7	138.67 ± 2.8	139.84 ± 2.8
x2 = 0.9197	136.05 ± 2.7	137.63 ± 2.8	138.84 ± 2.8
